Values joined by “and” are separate entries in the source; they are usually repeats but may differ in a detail not shown here. Identical values can stand only once.
How the values were obtained:
hCA XII = hCA XII (Homo sapiens, UniProt O43570); assay: CA inhibitory activity, spectrophotometric p-NPA assay; assay type: biochemical; details: p-NPA substrate, pH 7.5, 25 °C, triplicate; read-out: IC50 (µM) ± SD hCA XII
HL-60(TB) = assay: NCI-60 one-dose SRB screen (Leukemia); assay type: cell-based; details: Homo sapiens, single dose 10 µM, 48 h, read-out: Growth inhibition percent (GI %)
Description: (§1) The National Cancer Institute (NCI) Developmental Therapeutic Program (www.dtp.nci.nih.gov) selected the 20 novel synthesized compounds 4a-e, 5a-e, 6a-c, 9a-e, 10 and 11 to test for their anticancer activity at a single dose of 10 µM using SRB assay. […] Supplementary Data S3; Table S1 presents the detailed screening results of the most promising compounds. The preliminary screening’s detailed results for the remaining compounds are elucidated in the (Supplementary Data S3; Table S2).
(§2) The guidelines of the Drug Evaluation Branch’s protocol at the NCI in Bethesda served as the basis for the in vitro anticancer screening assays. at one dose 10 µM against a panel of 60 cancer cell lines. The human tumor cell lines used belonged to nine panels: leukemia, melanoma, lung, colon, CNS, ovarian, renal, prostate and breast cancers using the sulforhodamine B (SRB) assay in a 48 h drug exposure protocol.

K-562 = assay: NCI-60 one-dose SRB screen (Leukemia); assay type: cell-based; details: Homo sapiens, K562, single dose 10 µM, 48 h, read-out: Growth inhibition percent (GI %)
Description: as §1, §2

RPMI-8226 = assay: NCI-60 one-dose SRB screen (Leukemia); assay type: cell-based; details: Homo sapiens, single dose 10 µM, 48 h, read-out: Growth inhibition percent (GI %)
Description: as §1, §2

MOLT-4 = assay: NCI-60 one-dose SRB screen (Leukemia); assay type: cell-based; details: Homo sapiens, single dose 10 µM, 48 h, read-out: Growth inhibition percent (GI %)
Description: as §1, §2

CCRF-CEM = assay: NCI-60 one-dose SRB screen (Leukemia); assay type: cell-based; details: Homo sapiens, single dose 10 µM, 48 h, read-out: Growth inhibition percent (GI %)
Description: as §1, §2

SR = assay: NCI-60 one-dose SRB screen (Leukemia); assay type: cell-based; details: Homo sapiens, single dose 10 µM, 48 h, read-out: Growth inhibition percent (GI %)
Description: as §1, §2

UACC-257 = assay: NCI-60 one-dose SRB screen (Melanoma); assay type: cell-based; details: Homo sapiens, single dose 10 µM, 48 h, read-out: Growth inhibition percent (GI %)
Description: as §1, §2

M14 = assay: NCI-60 one-dose SRB screen (Melanoma); assay type: cell-based; details: Homo sapiens, single dose 10 µM, 48 h, read-out: Growth inhibition percent (GI %)
Description: as §1, §2

MDA-MB-435 = assay: NCI-60 one-dose SRB screen (Melanoma); assay type: cell-based; details: Homo sapiens, single dose 10 µM, 48 h, read-out: Growth inhibition percent (GI %)
Description: as §1, §2

LOX IMVI = assay: NCI-60 one-dose SRB screen (Melanoma); assay type: cell-based; details: Homo sapiens, single dose 10 µM, 48 h, read-out: Growth inhibition percent (GI %)
Description: as §1, §2

SK-MEL-28 = assay: NCI-60 one-dose SRB screen (Melanoma); assay type: cell-based; details: Homo sapiens, single dose 10 µM, 48 h, read-out: Growth inhibition percent (GI %)
Description: as §1, §2

UACC-62 = assay: NCI-60 one-dose SRB screen (Melanoma); assay type: cell-based; details: Homo sapiens, single dose 10 µM, 48 h, read-out: Growth inhibition percent (GI %)
Description: as §1, §2

SK-MEL-5 = assay: NCI-60 one-dose SRB screen (Melanoma); assay type: cell-based; details: Homo sapiens, single dose 10 µM, 48 h, read-out: Growth inhibition percent (GI %)
Description: as §1, §2

MALME-3M = assay: NCI-60 one-dose SRB screen (Melanoma); assay type: cell-based; details: Homo sapiens, single dose 10 µM, 48 h, read-out: Growth inhibition percent (GI %)
Description: as §1, §2

SF-539 = assay: NCI-60 one-dose SRB screen (CNS Cancer); assay type: cell-based; details: Homo sapiens, single dose 10 µM, 48 h, read-out: Growth inhibition percent (GI %)
Description: as §1, §2

SF-268 = assay: NCI-60 one-dose SRB screen (CNS Cancer); assay type: cell-based; details: Homo sapiens, single dose 10 µM, 48 h, read-out: Growth inhibition percent (GI %)
Description: as §1, §2

U251 = assay: NCI-60 one-dose SRB screen (CNS Cancer); assay type: cell-based; details: Homo sapiens, U-251, single dose 10 µM, 48 h, read-out: Growth inhibition percent (GI %)
Description: as §1, §2

SF-295 = assay: NCI-60 one-dose SRB screen (CNS Cancer); assay type: cell-based; details: Homo sapiens, single dose 10 µM, 48 h, read-out: Growth inhibition percent (GI %)
Description: as §1, §2

SNB-75 = assay: NCI-60 one-dose SRB screen (CNS Cancer); assay type: cell-based; details: Homo sapiens, single dose 10 µM, 48 h, read-out: Growth inhibition percent (GI %)
Description: as §1, §2

SNB-19 = assay: NCI-60 one-dose SRB screen (CNS Cancer); assay type: cell-based; details: Homo sapiens, single dose 10 µM, 48 h, read-out: Growth inhibition percent (GI %)
Description: as §1, §2

RXF 393 = assay: NCI-60 one-dose SRB screen (Renal Cancer); assay type: cell-based; details: Homo sapiens, single dose 10 µM, 48 h, read-out: Growth inhibition percent (GI %)
Description: as §1, §2

UO-31 = assay: NCI-60 one-dose SRB screen (Renal Cancer); assay type: cell-based; details: Homo sapiens, single dose 10 µM, 48 h, read-out: Growth inhibition percent (GI %)
Description: as §1, §2

SN12C = assay: NCI-60 one-dose SRB screen (Renal Cancer); assay type: cell-based; details: Homo sapiens, single dose 10 µM, 48 h, read-out: Growth inhibition percent (GI %)
Description: as §1, §2

786-0 = assay: NCI-60 one-dose SRB screen (Renal Cancer); assay type: cell-based; details: Homo sapiens, single dose 10 µM, 48 h, read-out: Growth inhibition percent (GI %)
Description: as §1, §2

TK-10 = assay: NCI-60 one-dose SRB screen (Renal Cancer); assay type: cell-based; details: Homo sapiens, single dose 10 µM, 48 h, read-out: Growth inhibition percent (GI %)
Description: as §1, §2

A498 = assay: NCI-60 one-dose SRB screen (Renal Cancer); assay type: cell-based; details: Homo sapiens, single dose 10 µM, 48 h, read-out: Growth inhibition percent (GI %)
Description: as §1, §2

ACHN = assay: NCI-60 one-dose SRB screen (Renal Cancer); assay type: cell-based; details: Homo sapiens, single dose 10 µM, 48 h, read-out: Growth inhibition percent (GI %)
Description: as §1, §2

CAKI-1 = assay: NCI-60 one-dose SRB screen (Renal Cancer); assay type: cell-based; details: Homo sapiens, single dose 10 µM, 48 h, read-out: Growth inhibition percent (GI %)
Description: as §1, §2

Sequence of hCA XII (O43570 25-354): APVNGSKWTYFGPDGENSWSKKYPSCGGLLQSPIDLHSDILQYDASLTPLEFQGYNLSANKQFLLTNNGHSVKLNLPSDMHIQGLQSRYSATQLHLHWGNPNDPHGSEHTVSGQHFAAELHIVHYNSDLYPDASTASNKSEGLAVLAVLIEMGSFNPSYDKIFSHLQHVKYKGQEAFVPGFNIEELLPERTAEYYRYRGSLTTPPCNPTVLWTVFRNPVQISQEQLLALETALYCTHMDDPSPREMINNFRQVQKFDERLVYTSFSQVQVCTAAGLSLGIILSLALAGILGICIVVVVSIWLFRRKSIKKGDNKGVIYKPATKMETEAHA

## NS(=O)(=O)c1ccc(NC(=O)COC(=O)c2cn(-c3ccc(S(N)(=O)=O)cc3)nc2-c2ccccc2)cc1 [Compound 4a, 2-Oxo-2-[(4-sulfamoylphenyl)amino] ethyl 3-phenyl-1-(4-sulfamoylphenyl)-1H-pyrazole-4-carboxylate]
hCA XII
  IC50: 0.22 µM and 0.226 µM
HL-60(TB)
  inhibition at 10 µM: 16.6%
K-562
  inhibition at 10 µM: 16.7%
RPMI-8226
  inhibition at 10 µM: < 5%
MOLT-4
  inhibition at 10 µM: < 5%
CCRF-CEM
  inhibition at 10 µM: < 5%
SR
  inhibition at 10 µM: < 5%
UACC-257
  inhibition at 10 µM: < 5%
M14
  inhibition at 10 µM: 23.2%
MDA-MB-435
  inhibition at 10 µM: < 5%
LOX IMVI
  inhibition at 10 µM: < 5%
SK-MEL-28
  inhibition at 10 µM: < 5%
UACC-62
  inhibition at 10 µM: < 5%
SK-MEL-5
  inhibition at 10 µM: < 5%
MALME-3M
  inhibition at 10 µM: 8.55%
SF-539
  inhibition at 10 µM: < 5%
SF-268
  inhibition at 10 µM: < 5%
U251
  inhibition at 10 µM: < 5%
SF-295
  inhibition at 10 µM: < 5%
SNB-75
  inhibition at 10 µM: 31.1%
SNB-19
  inhibition at 10 µM: < 5%
RXF 393
  inhibition at 10 µM: < 5%
UO-31
  inhibition at 10 µM: 15%
SN12C
  inhibition at 10 µM: < 5%
786-0
  inhibition at 10 µM: 31.2%
TK-10
  inhibition at 10 µM: < 5%
A498
  inhibition at 10 µM: < 5%
ACHN
  inhibition at 10 µM: < 5%
CAKI-1
  inhibition at 10 µM: 11.6%

From article PMC12454493, “Insight on novel sulfamoylphenyl pyrazole derivatives as anticancer carbonic anhydrase inhibitors” (Molecular Diversity, 2024)
